According to the supplement of paper PMC13380429:

Columns and labels:
Conditions in all cases: 72 h
Calu-3 [1] = experiment: relative viability EC50 (midpoint between 100% and the lowest measured viability); higher = less toxic
Vero E6 [2] = experiment: as above
U2OS [3] = experiment: as above
Caco-2 [4] = experiment: as above
HepG2 [5] = experiment: as above
Calu-3 [6] = experiment: drug sensitivity score (DSS) for viability; higher = more toxic; extreme values may be limits of the assay
Vero E6 [7] = experiment: as above
U2OS [8] = experiment: as above
Caco-2 [9] = experiment: as above
HepG2 [10] = experiment: as above
Calu-3 [11] = experiment: cell viability relative to DMSO; higher = less toxic
Vero E6 [12] = experiment: as above
U2OS [13] = experiment: as above
Caco-2 [14] = experiment: as above
HepG2 [15] = experiment: as above

SMILES | relative viability EC50 (Calu-3 [1]) | relative viability EC50 (Vero E6 [2]) | relative viability EC50 (U2OS [3]) | relative viability EC50 (Caco-2 [4]) | relative viability EC50 (HepG2 [5]) | drug sensitivity score (Calu-3 [6]) | drug sensitivity score (Vero E6 [7]) | drug sensitivity score (U2OS [8]) | drug sensitivity score (Caco-2 [9]) | drug sensitivity score (HepG2 [10]) | cell viability (Calu-3 [11]; 1 nM) | cell viability (Calu-3 [11]; 10 nM) | cell viability (Calu-3 [11]; 100 nM) | cell viability (Calu-3 [11]; 1000 nM) | cell viability (Calu-3 [11]; 10000 nM) | cell viability (Vero E6 [12]; 1 nM) | cell viability (Vero E6 [12]; 10 nM) | cell viability (Vero E6 [12]; 100 nM) | cell viability (Vero E6 [12]; 1000 nM) | cell viability (Vero E6 [12]; 10000 nM) | cell viability (U2OS [13]; 1 nM) | cell viability (U2OS [13]; 10 nM) | cell viability (U2OS [13]; 100 nM) | cell viability (U2OS [13]; 1000 nM) | cell viability (U2OS [13]; 10000 nM) | cell viability (Caco-2 [14]; 1 nM) | cell viability (Caco-2 [14]; 10 nM) | cell viability (Caco-2 [14]; 100 nM) | cell viability (Caco-2 [14]; 1000 nM) | cell viability (Caco-2 [14]; 10000 nM) | cell viability (HepG2 [15]; 1 nM) | cell viability (HepG2 [15]; 10 nM) | cell viability (HepG2 [15]; 100 nM) | cell viability (HepG2 [15]; 1000 nM) | cell viability (HepG2 [15]; 10000 nM)
C#C[C@]1(O)C=C[C@H]2[C@@H]3CCC4=CC(=O)CC[C@@H]4[C@H]3CC[C@@]21CC [gestodene] | > 10 µM | > 10 µM | > 10 µM | > 10 µM | > 10 µM | 0 | 0 | 0 | 0 | 0 | 95.9% | 101% | 101% | 88.5% | 108% | 95.9% | 96.8% | 96.3% | 94.3% | 106% | 96.3% | 99.2% | 94.3% | 96% | 102% | 90.1% | 89.6% | 98.9% | 100% | 98.7% | 103% | 102% | 111% | 105% | 99.7%
CC(C)=CCC[C@](C)(O[C@@H]1O[C@H](CO)[C@@H](O)[C@H](O)[C@H]1O)[C@H]1CC[C@]2(C)[C@@H]1[C@H](O)C[C@@H]1[C@@]3(C)CC[C@H](O[C@@H]4O[C@H](CO)[C@@H](O)[C@H](O)[C@H]4O[C@@H]4O[C@H](CO)[C@@H](O)[C@H](O)[C@H]4O)C(C)(C)[C@@H]3CC[C@]12C [ginsenoside-RD] | > 10 µM | > 10 µM | > 10 µM | > 10 µM | > 10 µM | 0 | 0 | 0 | 0 | 0.3 | 105% | 103% | 101% | 107% | 99.8% | 99.6% | 101% | 97.2% | 100% | 99.3% | 102% | 98.9% | 101% | 100% | 102% | 105% | 98.7% | 94.4% | 92.3% | 104% | 94.2% | 97.3% | 101% | 88.9% | 89.6%
CN1CC[C@@H](NC(=O)Nc2ccc(C#N)cc2)C[C@@H]1c1nc2ccccc2[nH]1 [glasdegib] | > 10 µM | > 10 µM | > 10 µM | > 10 µM | > 10 µM | 0 | 0 | 0 | 0.6 | 0 | 92.6% | 110% | 96.9% | 111% | 104% | 102% | 103% | 102% | 100% | 97.1% | 96.3% | 102% | 94.9% | 98.5% | 98.3% | 98.4% | 96.5% | 94.1% | 97.1% | 83.5% | 108% | 99% | 99.1% | 96.2% | 92%
COc1ccc2c(c1)c(C1=C(c3c[nH]c4ccccc34)C(=O)NC1=O)cn2CCCN(C)C [go-6983] | > 10 µM | > 10 µM | > 10 µM | > 10 µM | 3.52 µM | 1.2 | 0.7 | 1.6 | 0.2 | 3.4 | 98.9% | 85.1% | 99% | 83.9% | 84% | 108% | 104% | 97.7% | 103% | 75.3% | 94.4% | 92.2% | 104% | 91.4% | 79.6% | 110% | 95.6% | 108% | 101% | 85.7% | 105% | 94.7% | 87.1% | 105% | 31.7%
CCc1nc2c(C)nc(C)cc2n1-c1ccc(CCNC(=O)NS(=O)(=O)c2ccc(C)cc2)cc1 [grapiprant] | > 10 µM | > 10 µM | > 10 µM | > 10 µM | > 10 µM | 0 | 0 | 0 | 0 | 0 | 102% | 89.9% | 103% | 96.1% | 104% | 101% | 97.7% | 97.3% | 95.6% | 96.6% | 98% | 96.3% | 97.7% | 99.3% | 96.8% | 101% | 90.4% | 101% | 102% | 93.8% | 103% | 101% | 104% | 99.2% | 97.6%
CN(C)CCc1ccc(O)cc1 [hordenine] | > 10 µM | > 10 µM | > 10 µM | > 10 µM | > 10 µM | 0 | 0 | 0 | 0 | 0 | 91.9% | 93.6% | 89.7% | 101% | 101% | 106% | 103% | 101% | 99.1% | 103% | 94.6% | 96.1% | 92.7% | 102% | 97.8% | 96.2% | 102% | 100% | 102% | 95.8% | 104% | 110% | 103% | 87.1% | 100%
Cc1cc(/C=C2\SC(=O)N(c3ccccc3)C2=O)c(C)n1-c1cccnc1 [iCRT-14] | > 10 µM | > 10 µM | > 10 µM | > 10 µM | > 10 µM | 0 | 0 | 0 | 0.1 | 1.4 | 101% | 88.7% | 100% | 104% | 107% | 105% | 102% | 96.8% | 99.8% | 89.8% | 97% | 96.8% | 102% | 95.7% | 96.4% | 107% | 107% | 102% | 96.8% | 89% | 96.7% | 102% | 93.4% | 94.3% | 76.2%
N=C(N)NCCC[C@@H](N)C(=O)N[C@@H](CCCNC(=N)N)C(=O)N1CCC[C@H]1C(=O)N1C[C@H](O)C[C@H]1C(=O)NCC(=O)N[C@@H](Cc1cccs1)C(=O)N[C@@H](CO)C(=O)N1Cc2ccccc2C[C@@H]1C(=O)N1[C@H](C(=O)N[C@@H](CCCNC(=N)N)C(=O)O)C[C@@H]2CCCC[C@@H]21 [icatibant-acetate] | > 10 µM | > 10 µM | > 10 µM | > 10 µM | > 10 µM | 0 | 0 | 0 | 0 | 0 | 107% | 92.8% | 98% | 98.6% | 104% | 99% | 97.9% | 101% | 101% | 101% | 102% | 98.8% | 103% | 98.1% | 101% | 96% | 100% | 90% | 91.4% | 103% | 91% | 93.3% | 84.7% | 102% | 102%
C[C@@]12CC[C@@H]3[C@@](CC[C@H]4[C@@]3(C)CCC[C@@]4(C)C(=O)O)(CC1=O)C2 [isosteviol] | > 10 µM | > 10 µM | > 10 µM | > 10 µM | > 10 µM | 0 | 0 | 0 | 0 | 0 | 103% | 105% | 112% | 110% | 94.5% | 97.8% | 99.6% | 98.5% | 97.5% | 106% | 101% | 101% | 96.8% | 96.5% | 98.1% | 87.5% | 99.9% | 89.2% | 95.2% | 109% | 94.4% | 91.4% | 100% | 99.5% | 107%
N#CCCCSC(=N)N [kevetrin] | > 10 µM | > 10 µM | > 10 µM | > 10 µM | > 10 µM | 0 | 0 | 0 | 0 | 0 | 108% | 90.9% | 92.8% | 105% | 93.1% | 96.6% | 98.4% | 92.6% | 101% | 98.9% | 97.9% | 102% | 96.3% | 97.5% | 96.3% | 92% | 99.3% | 96.6% | 99.8% | 99.7% | 107% | 97.4% | 101% | 93.6% | 101%
CC(=O)O[C@H]1C[C@H](O[C@H]2[C@@H](O)C[C@H](O[C@H]3[C@@H](O)C[C@H](O[C@H]4CC[C@@]5(C)[C@H](CC[C@@H]6[C@@H]5C[C@@H](O)[C@]5(C)[C@@H](C7=CC(=O)OC7)CC[C@]65O)C4)O[C@@H]3C)O[C@@H]2C)O[C@H](C)[C@H]1O[C@@H]1O[C@H](CO)[C@@H](O)[C@H](O)[C@H]1O [lanatoside-C] | 0.248 µM | 0.0458 µM | 0.211 µM | 0.116 µM | 0.396 µM | 15.2 | 27.8 | 19.5 | 19.5 | 15 | 107% | 95.1% | 80.7% | 30.6% | 18.7% | 92.5% | 92% | 23.4% | 0.8% | 0.9% | 101% | 97.3% | 87.4% | 3.4% | 6.7% | 102% | 99% | 66.4% | 17.6% | 18.4% | 99.4% | 97.7% | 83.3% | 30.9% | 5.9%
CC1(C)OC[C@@H](COC(=O)CCc2ccc(OC[C@@H](O)CNCCNC(=O)N3CCOCC3)cc2)O1 [landiolol] | > 10 µM | > 10 µM | > 10 µM | > 10 µM | > 10 µM | 0 | 0 | 0 | 0 | 0 | 105% | 97.7% | 97.2% | 104% | 101% | 96.2% | 97.4% | 93.4% | 94.6% | 96.6% | 98.4% | 99.2% | 96.9% | 101% | 97.1% | 111% | 103% | 98.2% | 108% | 107% | 81.9% | 106% | 104% | 86.3% | 96.8%
